Results from ChEMBL document CHEMBL1781876, “Design, synthesis and inhibition activity of a novel cyclic enediyne amino acid conjugates against MPtpA” (Bioorg Med Chem, 2011).

Molecular target: T1, Low molecular weight protein-tyrosine phosphatase A (Mycobacterium tuberculosis, UniProt P9WIA1)
T1 sequence (P9WIA1 whole entry): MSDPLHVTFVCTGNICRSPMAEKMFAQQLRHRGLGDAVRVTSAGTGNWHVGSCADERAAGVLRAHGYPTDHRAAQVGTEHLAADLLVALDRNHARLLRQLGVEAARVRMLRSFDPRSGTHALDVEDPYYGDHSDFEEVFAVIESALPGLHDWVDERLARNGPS
Test: Non-competitive inhibition of Mycobacterium tuberculosis PTPA using p-nitrophenyl phosphate as substrate by Lineweaver-Burk plot analysis

| Compound | IC50 | Ki |
| --- | --- | --- |
| O=C(O)/C1=C/C#Cc2ccccc2C#CCCNC1=O | 110 µM | 22.5 µM |
| O=C(O)C1CCCc2ccccc2CCCCNC1=O (racemic) | 236 µM | 101 µM |
